Patent US11000033B2, “Ketone or oxime compound, and herbicide” (NISSAN CHEMICAL CORPORATION, priority 2014, dated 2021)

What was measured:
Type in all cases: in vivo
[1] = test system: Echinochloa crus-galli var. crus-galli; test: Test Example 4: herbicidal effect by soil treatment (symbol H); details: for H: Echinochloa crus-galli var. crus-galli, herbicidal effect grade: 320 g/ha; for Herbicidal effect grade, H: Echinochloa crus-galli var. crus-galli: application herbicide amount 320 g/ha
How it was run: (§1)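 Seeds were sown in sterilized diluvial soil, covered with about 1.5 cm of soil, and the soil surface was sprayed with a water-diluted emulsion of the compound at a predetermined rate. Plants grew in a greenhouse at 25° C. to 30° C.; effects were scored visually 3 weeks after application.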

rice = test: Test Example 4: effect on crop by soil treatment (symbol b); details: for b: directly sowed rice plant, effect grade on crop: 320 g/ha; for Effect on crop grade, b: directly sowed rice plant: application herbicide amount 320 g/ha
How it was run: (§2)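 Greenhouse culture at 25° C. to 30° C. followed sowing of seed in spots on sterilized diluvial soil with a soil cover close to 1.5 cm thick.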

Amaranthus retroflexus = test: Test Example 4: herbicidal effect by soil treatment (symbol N); details: for N: Amaranthus retroflexus, herbicidal effect grade: 320 g/ha; for Herbicidal effect grade, N: Amaranthus retroflexus: application herbicide amount 320 g/ha
How it was run: as §1

Avena fatua = test: Test Example 5: herbicidal effect by foliage application, plastic box (symbol I); details: 320 g/ha, 3 weeks after application
How it was run: (§3)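 Effect is rated 3 weeks after a foliar spray of water-diluted emulsion concentrate at a predetermined herbicide amount. Plants had grown 14 days in a 25° C. to 30° C. greenhouse from seed in sterilized diluvial soil.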

Setaria viridis = test: Test Example 5: herbicidal effect by foliage application, plastic box (symbol G); details: 320 g/ha, 3 weeks after application
How it was run: as §3

Stellaria media [2] = test: Test Example 5: herbicidal effect by foliage application, plastic box (symbol P); details: 320 g/ha, 3 weeks after application
How it was run: as §3

Stellaria media [3] = test: Test Example 4: herbicidal effect by soil treatment (symbol P); details: for P: Stellaria media, herbicidal effect grade: 320 g/ha; for Herbicidal effect grade, P: Stellaria media: application herbicide amount 320 g/ha
Description: Herbicidal Effect Test by Soil Treatment
Sterilized diluvial soil was placed in a plastic box having a length of 21 cm, a width of 13 cm, and a depth of 7 cm. Each of the seeds of Digitaria ciliaris, Setaria viridis, Echinochloa crus-galli var. crus-galli, Avena fatua, Alopecurus myosuroides, Lolium multiflorum Lam., Apera spica-venti, Abutilon theophrasti, Amaranthus retroflexus, Chenopodium album, Stellaria media, Galium spurium, Veronica persica, corn, soybean, rice, wheat, beet, and rapeseed was sowed in a spot-like manner and was covered with the soil of a thickness of about 1.5 cm. Subsequently, the emulsion agent of the compound present invention prepared in accordance with Formulation Example 2 was diluted with water so as to be a predetermined herbicide amount and the diluted emulsion agent was uniformly applied to the surface of the soil with a small-size spray. The plastic box was placed in a greenhouse of 25° C. to 30° C. to grow plant. 3 weeks later from the herbicide application, the effect to each plant was investigated in accordance with the criteria of Test Example 1.

Abutilon theophrasti = test: Test Example 5: herbicidal effect by foliage application, plastic box (symbol M); details: 320 g/ha, 3 weeks after application
How it was run: as §3

beet = test: Test Example 4: effect on crop by soil treatment (symbol f); details: for f: beet, effect grade on crop: 320 g/ha; for Effect on crop grade, f: beet: application herbicide amount 320 g/ha
How it was run: as §2

transplanted rice plant = test: Test Example 1: effect on crop, application before weed generation in submerged conditions (symbol a); details: application herbicide amount 320 g/ha
How it was run: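 Alluvial soil pots flooded to 4 cm water, sown with Echinochloa oryzacola, Scirpus juncoides and Monochoria vaginalis, then transplanted with 2.5 leaf stage rice seedlings; pre-emergence application. Greenhouse 25° C. to 30° C.; scored 0–5 by herbicidal ratio 3 weeks after application.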

rice plant = test: Test Example 5: effect on crop by foliage application, plastic box (symbol b); details: 320 g/ha, 3 weeks after application
How it was run: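 Greenhouse culture at 25° C. to 30° C. followed spot-like sowing into sterilized diluvial soil, with seed covered by roughly 1.5 cm of soil.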

Digitaria ciliaris = test: Test Example 5: herbicidal effect by foliage application, plastic box (symbol F); details: 320 g/ha, 3 weeks after application
How it was run: as §3

Monochoria vaginalis = test: Test Example 2: herbicidal activity, application during weed generation in submerged conditions (symbol C); details: Table 23; application herbicide amount 320 g/ha; grade 0-5 by criteria of Test Example 1
How it was run: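 Read-out: herbicidal effect on each species rated on a visual scale 3 weeks after treatment. Plants were raised together from seed in flooded alluvial soil (4 cm water) at 25° C. to 30° C. and treated at one to two leaves by water-surface application of diluted emulsion.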

| Compound | H: Echinochloa crus-galli var. crus-galli, herbicidal effect grade [1] | b: directly sowed rice plant, effect grade on crop (rice) | N: Amaranthus retroflexus, herbicidal effect grade (Amaranthus retroflexus) | I: Avena fatua, herbicidal effect (criteria 0-5) (Avena fatua) | G: Setaria viridis, herbicidal effect (criteria 0-5) (Setaria viridis) | P: Stellaria media, herbicidal effect (criteria 0-5) (Stellaria media [2]) | P: Stellaria media, herbicidal effect grade (Stellaria media [3]) | M: Abutilon theophrasti, herbicidal effect (criteria 0-5) (Abutilon theophrasti) | f: beet, effect grade on crop (beet) | Effect grade on crop, a: transplanted rice plant (transplanted rice plant) | b: directly sowed rice plant, effect on crop (criteria 0-5) (rice plant) | F: Digitaria ciliaris, herbicidal effect (criteria 0-5) (Digitaria ciliaris) | Herbicidal effect grade, C: Monochoria vaginalis (Monochoria vaginalis) | Herbicidal effect grade, H: Echinochloa crus-galli var. crus-galli [1] | Effect on crop grade, b: directly sowed rice plant (rice) | Herbicidal effect grade, N: Amaranthus retroflexus (Amaranthus retroflexus) | I: Avena fatua, herbicidal effect grade (Avena fatua) | G: Setaria viridis, herbicidal effect grade (Setaria viridis) | P: Stellaria media, herbicidal effect grade (Stellaria media [2]) | Herbicidal effect grade, P: Stellaria media (Stellaria media [3]) | other results |
| --- | --- | --- | --- | --- | --- | --- | --- | --- | --- | --- | --- | --- | --- | --- | --- | --- | --- | --- | --- | --- | --- |
| CON=C(C)CC1CC(OC(=O)C#C[Si](C)(C)C)=C(c2c(C)cc(C)cc2C)C1=O (stereo not drawn) [1-096] | 4 (Herbicidal ratio of 70% or higher and lower than 90%) | 5 (Herbicidal ratio of 90% or more (almost completely withered)) | 4 (Herbicidal ratio of 70% or higher and lower than 90%) | 5 (Herbicidal ratio of 90% or more (almost completely withered)) | 5 (Herbicidal ratio of 90% or more (almost completely withered)) | 2 (Herbicidal ratio of 20% or higher and lower than 40%) | 0 (Herbicidal ratio of 5% or lower (almost no effect)) | 4 (Herbicidal ratio of 70% or higher and lower than 90%) | 0 (Herbicidal ratio of 5% or lower (almost no effect)) | 5 (Herbicidal ratio of 90% or more (almost completely withered)) | 5 (Herbicidal ratio of 90% or more (almost completely withered)) | 5 (Herbicidal ratio of 90% or more (almost completely withered)) | – | – | – | – | – | – | – | – | – |
| COCCON=C(CC1CC(O)=C(c2c(C)cc(Br)cc2C)C1=O)C1CC1 (stereo not drawn) [9-019] | – | – | – | – | – | – | – | – | – | – | – | – | 0 (Herbicidal ratio of 5% or lower (almost no effect)) | 0 (Herbicidal ratio of 5% or lower (almost no effect)) | 5 (Herbicidal ratio of 90% or more (almost completely withered)) | 0 (Herbicidal ratio of 5% or lower (almost no effect)) | 4 (Herbicidal ratio of 70% or higher and lower than 90%) | 5 (Herbicidal ratio of 90% or more (almost completely withered)) | 0 (Herbicidal ratio of 5% or lower (almost no effect)) | 0 (Herbicidal ratio of 5% or lower (almost no effect)) | M: Abutilon theophrasti, herbicidal effect grade (Abutilon theophrasti): 0 (Herbicidal ratio of 5% or lower (almost no effect)); Effect on crop grade, f: beet (beet): 0 (Herbicidal ratio of 5% or lower (almost no effect)); a (transplanted rice plant) effect on crop grade (transplanted rice plant): 4 (Herbicidal ratio of 70% or higher and lower than 90%); b: directly sowed rice plant, effect on crop grade (rice plant): 3 (Herbicidal ratio of 40% or higher and lower than 70%); F: Digitaria ciliaris, herbicidal effect grade (Digitaria ciliaris): 4 (Herbicidal ratio of 70% or higher and lower than 90%) |
| CC(CC1CC(O)=C(c2c(C)cc(C)cc2C)C1=O)=NOCC#N (stereo not drawn) [1-102] | 5 (Herbicidal ratio of 90% or more (almost completely withered)) | 5 (Herbicidal ratio of 90% or more (almost completely withered)) | 0 (Herbicidal ratio of 5% or lower (almost no effect)) | 5 (Herbicidal ratio of 90% or more (almost completely withered)) | 5 (Herbicidal ratio of 90% or more (almost completely withered)) | 0 (Herbicidal ratio of 5% or lower (almost no effect)) | 0 (Herbicidal ratio of 5% or lower (almost no effect)) | 0 (Herbicidal ratio of 5% or lower (almost no effect)) | 0 (Herbicidal ratio of 5% or lower (almost no effect)) | 5 (Herbicidal ratio of 90% or more (almost completely withered)) | 5 (Herbicidal ratio of 90% or more (almost completely withered)) | 5 (Herbicidal ratio of 90% or more (almost completely withered)) | 2 (Herbicidal ratio of 20% or higher and lower than 40%) | – | – | – | – | – | – | – | – |
| CCCCCCCCS(=O)(=O)OC1=C(c2c(C)cc(C)cc2C)C(=O)C(CC(C)=NOC)C1 (stereo not drawn) [1-107] | 5 (Herbicidal ratio of 90% or more (almost completely withered)) | 5 (Herbicidal ratio of 90% or more (almost completely withered)) | 0 (Herbicidal ratio of 5% or lower (almost no effect)) | 5 (Herbicidal ratio of 90% or more (almost completely withered)) | 5 (Herbicidal ratio of 90% or more (almost completely withered)) | 0 (Herbicidal ratio of 5% or lower (almost no effect)) | 0 (Herbicidal ratio of 5% or lower (almost no effect)) | 1 (Herbicidal ratio of 5% or higher and lower than 20%) | 0 (Herbicidal ratio of 5% or lower (almost no effect)) | 3 (Herbicidal ratio of 40% or higher and lower than 70%) | 5 (Herbicidal ratio of 90% or more (almost completely withered)) | 4 (Herbicidal ratio of 70% or higher and lower than 90%) | 0 (Herbicidal ratio of 5% or lower (almost no effect)) | – | – | – | – | – | – | – | – |
| CC#Cc1cc(C)c(C2=C(O)CC(CC(=NOCC(F)(F)F)C(C)C)C2=O)c(C)c1 (stereo not drawn) [9-015] | – | – | – | – | – | – | – | – | – | – | – | – | – | 5 (Herbicidal ratio of 90% or more (almost completely withered)) | 5 (Herbicidal ratio of 90% or more (almost completely withered)) | 0 (Herbicidal ratio of 5% or lower (almost no effect)) | 4 (Herbicidal ratio of 70% or higher and lower than 90%) | 5 (Herbicidal ratio of 90% or more (almost completely withered)) | 3 (Herbicidal ratio of 40% or higher and lower than 70%) | 0 (Herbicidal ratio of 5% or lower (almost no effect)) | M: Abutilon theophrasti, herbicidal effect grade (Abutilon theophrasti): 0 (Herbicidal ratio of 5% or lower (almost no effect)); Effect on crop grade, f: beet (beet): 0 (Herbicidal ratio of 5% or lower (almost no effect)); a (transplanted rice plant) effect on crop grade (transplanted rice plant): 5 (Herbicidal ratio of 90% or more (almost completely withered)); b: directly sowed rice plant, effect on crop grade (rice plant): 5 (Herbicidal ratio of 90% or more (almost completely withered)); F: Digitaria ciliaris, herbicidal effect grade (Digitaria ciliaris): 5 (Herbicidal ratio of 90% or more (almost completely withered)) |
